Laboratory results reported in patent US9751885B2, “Cyclopropanamine compound and use thereof” (Takeda Pharmaceutical Company Limited, priority 2012, dated 2017).
Where a name gives a salt, the structure may show the parent alone. Read-outs that look alike come from different tables or passages of the source. Marks after values point to notes of the source that are not given here.

Columns and labels:
[1] = molecular target: MAO-B enzyme (Homo sapiens (Human), UniProt P27338); assay: Measurement of MAO-B inhibitory activity (MAO-Glo Assay); conditions: read-out: MAO-B IC50 value;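 note: luminescence read-out, compound preincubated 10 min with enzyme then reacted 60 min at room temperature, inhibition relative to enzyme reaction without compound, blank lacking enzyme and compound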
[2] = test system: white blood cell number, red blood cell number, platelet number; assay: Evaluation of blood cell number in mouse; assay type: in vivo; conditions: oral, Day 2 after administration
Method in brief: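 Male ICR mice dosed orally at 1, 10, 50 or 100 mg/kg (suspension in 0.5% methylcellulose/0.02% citric acid/water); whole blood collected on Day 2. White cell, red cell and platelet counts per unit volume by automated haematology analyser, expressed as % of mean of untreated control group.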

[3] = test system: Gad1 H3K4me2 level in rat primary culture neurons; assay: Gad1 H3K4 methylation induction activity in rat primary culture neurons (ChIP-qPCR); assay type: cell-based; conditions: Neuron, 72 h, control without compound = 100%
Method: Gad1 H3K4 Methylation Induction Activity in Rat Primary Culture Neurons
Thereafter, the compound was added to final concentrations of 1 or 10 μM, and the cells were further cultured for 3 days. The culture supernatant was aspirated, ice-cold PBS was added, and the cell suspension was collected on ice using CELL SCRAPER (IWAKI). […] (750 μL). Furthermore, 0.3% NP40/cell lysis buffer 1 (750 μL) was added, and the cells were lysed by incubating for 5 min on ice.
Using the DNA obtained by the chromatin immunoprecipitation as a template, quantitative PCR of the Gad1 gene upstream genomic region was performed, and the measurement value was taken as the Gad1 H3K4me2 level. […] The Gad1 H3K4me2 induction by the compound was expressed by the H3K4me2 level when the compound was added, as compared to the H3K4me2 level of the control (without addition of the compound) as 100%.

[4] = molecular target: MAO-A enzyme (Homo sapiens (Human), UniProt P21397); assay: Measurement of MAO-A inhibitory activity (MAO-Glo Assay); assay type: biochemical
Method: The MAO-A inhibitory activity evaluation described below followed the protocol of MAO-Glo (registered trademark) Assay of Promega KK.
A test compound dissolved in 4% DMSO was added by 12.5 μL to 25 μL reaction solution (100 mM HEPES (pH 7.5), 5% glycerol) containing 400 ng of MAO-A enzyme (Sigma-Aldrich Co. LLC.), and the mixture was reacted at room temperature for 10 min. […] After reaction at room temperature for 60 min, Luciferine detection reagent (Promega KK) (50 μL) was added to terminate the reaction. After reaction at room temperature for min with stirring, the luminescence was measured by Envision (PerkinElmer). The MAO-A inhibitory rate (%) of the test compound was calculated by the following formula. inhibitory rate(%)=(1−(test compound count−blank)÷(control−blank))×100
The count of the MAO-A enzyme reaction mixture under compound non-addition conditions is indicated as control, and the count under compound non-addition and MAO-A enzyme non-addition conditions is indicated as blank.

[5] = molecular target: human LSD1(172-833) (Homo sapiens (Human), UniProt O60341); assay: Measurement of LSD1 inhibitory activity (time-resolved fluorescence, biotin-histone H3 mono methylated K4 peptide); assay type: biochemical
Method in brief: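 Remaining signal detected by TR-FRET after 60 min with europium anti-histone H3 antibody and streptavidin-XL665 in potassium fluoride/0.1% BSA.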

[6] = Evaluation of hippocampal distribution in mouse; assay type: in vivo; conditions: male ICR mice, 10 mg/kg oral; for concentration at 1 h: 1 hr after administration; for concentration at 0.5 h: 0.5 hr after administration
Method in brief: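 Male ICR mice dosed orally at 10 mg/kg as suspension in 0.5% methylcellulose/0.02% citric acid/water. Plasma and hippocampus sampled together at 0.5, 1 or 1.5 h; LC/MS/MS concentrations gave hippocampus/plasma ratio.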

[7] = Rattus norvegicus, read-out: Gad1 H3K4me2 induction activity (%), compound 1 μM, 3 days, rat primary culture neurons
[8] = Rattus norvegicus, read-out: Gad1 H3K4me2 induction activity (%), compound 10 μM, 3 days, rat primary culture neurons
[9] = hippocampus, read-out: hippocampus concentration (mean)
[10] = plasma, read-out: plasma concentration (mean)
[11] = compound 1 μM, 3 days, rat primary culture neurons, read-out: Gad1 H3K4me2 induction activity (%)
[12] = compound 10 μM, 3 days, rat primary culture neurons, read-out: Gad1 H3K4me2 induction activity (%)

Chain of MAO-B enzyme (P27338 whole entry): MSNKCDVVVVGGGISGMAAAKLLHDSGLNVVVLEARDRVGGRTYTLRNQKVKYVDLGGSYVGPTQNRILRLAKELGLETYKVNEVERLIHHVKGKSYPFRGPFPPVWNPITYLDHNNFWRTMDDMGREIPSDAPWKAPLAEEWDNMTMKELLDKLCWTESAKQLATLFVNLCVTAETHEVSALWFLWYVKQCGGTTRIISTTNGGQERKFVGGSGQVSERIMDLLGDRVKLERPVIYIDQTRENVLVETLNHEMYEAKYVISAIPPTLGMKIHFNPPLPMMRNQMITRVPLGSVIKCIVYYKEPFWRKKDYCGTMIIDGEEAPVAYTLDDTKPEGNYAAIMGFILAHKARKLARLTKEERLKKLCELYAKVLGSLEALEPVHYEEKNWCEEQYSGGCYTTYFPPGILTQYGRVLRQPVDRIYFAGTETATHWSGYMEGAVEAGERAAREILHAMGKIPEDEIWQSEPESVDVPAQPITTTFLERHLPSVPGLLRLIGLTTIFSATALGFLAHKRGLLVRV
Chain of MAO-A enzyme (P21397 whole entry): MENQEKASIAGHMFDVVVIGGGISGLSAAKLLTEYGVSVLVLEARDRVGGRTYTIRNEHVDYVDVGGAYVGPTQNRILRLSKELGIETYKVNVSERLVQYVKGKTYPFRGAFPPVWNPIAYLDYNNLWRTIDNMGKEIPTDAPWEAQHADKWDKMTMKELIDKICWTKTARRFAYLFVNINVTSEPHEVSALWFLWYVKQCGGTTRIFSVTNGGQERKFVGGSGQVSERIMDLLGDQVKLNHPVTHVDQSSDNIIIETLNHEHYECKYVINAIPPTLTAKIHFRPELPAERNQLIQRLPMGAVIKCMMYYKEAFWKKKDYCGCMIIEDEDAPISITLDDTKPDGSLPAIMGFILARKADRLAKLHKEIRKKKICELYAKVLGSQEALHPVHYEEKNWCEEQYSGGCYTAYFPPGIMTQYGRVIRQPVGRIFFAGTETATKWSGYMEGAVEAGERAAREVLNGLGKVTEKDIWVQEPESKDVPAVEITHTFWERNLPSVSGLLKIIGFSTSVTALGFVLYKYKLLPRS

SMILES	IC50 [1] [µM]	platelet number, percentage of compound administration group compared to control group, mean ([2]; 10 mg/kg) [%]	red blood cell number, percentage of compound administration group compared to control group, mean ([2]; 10 mg/kg) [%]	white blood cell number, percentage of compound administration group compared to control group, mean ([2]; 10 mg/kg) [%]	platelet number, percentage of compound administration group compared to control group, mean ([2]; 50 mg/kg)	red blood cell number, percentage of compound administration group compared to control group, mean ([2]; 50 mg/kg)	white blood cell number, percentage of compound administration group compared to control group, mean ([2]; 50 mg/kg)	activity at 1 µM [3, 7] [%]	activity at 10 µM [3, 8] [%]	IC50 [4] [µM]	IC50 [5] [µM]	platelet number, percentage of compound administration group compared to control group, mean ([2]; 100 mg/kg) [%]	red blood cell number, percentage of compound administration group compared to control group, mean ([2]; 100 mg/kg) [%]	white blood cell number, percentage of compound administration group compared to control group, mean ([2]; 100 mg/kg) [%]	concentration at 1 h [6, 9] [ng/g]	concentration at 1 h [6, 10] [ng/mL]	activity at 1 µM [3, 11] [%]	activity at 10 µM [3, 12] [%]	concentration at 0.5 h [6, 9] [ng/g]	concentration at 0.5 h [6, 10] [ng/mL]
O=C(Nc1ccc(-c2ncccn2)cc1)c1cccc([C@@H]2C[C@H]2NCC2CC2)c1 (relative stereo) [Example 58, 3-(trans-2-((cyclopropylmethyl)amino)cyclopropyl)-N-(4-(pyrimidin-2-yl)phenyl)benzamide dihydrochloride]	> 10	99.4	99.7	94.2	102.9^a %	101.3^a %	85.8^a %	126	116	> 10	< 0.1									
O=C(Nc1cnn(CC2CC2)c1)c1cccc([C@@H]2C[C@H]2NCC2CC2)c1 (relative stereo) [Example 77, 3-(trans-2-((cyclopropylmethyl)amino)cyclopropyl)-N-(1-(cyclopropylmethyl)-1H-pyrazol-4-yl)benzamide dihydrochloride]	> 10	99.6	98.2	147.9				165	163	> 10	< 0.1	96.6	100.9	98.2						
Cc1cc(NC(=O)c2cccc([C@@H]3C[C@H]3NCC3CC3)c2)on1 (relative stereo) [Example 106, 3-(trans-2-((cyclopropylmethyl)amino)cyclopropyl)-N-(3-methyl-1,2-oxazol-5-yl)benzamide hydrochloride]	> 10	94.6	99.4	114.8						> 10	< 0.1	97.2	101.9	89.0	107	33	139	132		
Cc1nnc(NC(=O)c2ccc(F)c([C@@H]3C[C@H]3NCC3CC3)c2)s1 (relative stereo) [Example 109, 3-(trans-2-((cyclopropylmethyl)amino)cyclopropyl)-4-fluoro-N-(5-methyl-1,3,4-thiadiazol-2-yl)benzamide dihydrochloride]	> 10	94.3	96.3	88.3						> 10	< 0.1	97.8	98.2	107.4			117	96	1610	1250
Cc1nnc(NC(=O)c2cccc([C@@H]3C[C@H]3NC3CCN(C4CC4)CC3)c2)s1 (relative stereo) [Example 176, 3-(trans-2-((1-cyclopropylpiperidin-4-yl)amino)cyclopropyl)-N-(5-methyl-1,3,4-thiadiazol-2-yl)benzamide fumarate]		96.7	97.5	106.6				139	116			90.2	100.8	107.8	642	515				
O=C(NC1CCC(F)(F)CC1)c1cccc([C@@H]2C[C@H]2NC2CCOCC2)c1 (relative stereo) [Example 177, N-(4,4-difluorocyclohexyl)-3-(trans-2-(tetrahydro-2H-pyran-4-ylamino)cyclopropyl)benzamide hydrochloride]		101.3	94.5	136.9				340	200			97.4	99.0	97.1	324	630				
O=C(NC1CCOCC1)c1cccc([C@@H]2C[C@H]2NC2CCC2)c1 (relative stereo) [Example 179, 3-(trans-2-(cyclobutylamino)cyclopropyl)-N-(tetrahydro-2H-pyran-4-yl)benzamide hydrochloride]		94.8	102.5	94.2				175	123			92.5	100.4	121.2					321	421
Cn1cc(NC(=O)c2cc([C@@H]3C[C@H]3NC3CCC(F)(F)CC3)ccc2F)cn1 (relative stereo) [Example 186, 5-(trans-2-((4,4-difluorocyclohexyl)amino)cyclopropyl)-2-fluoro-N-(1-methyl-1H-pyrazol-4-yl)benzamide hydrochloride]		93.1	101.5	129.3				239	191			88.2	99.2	111.2					3120	1320
Cc1ncc(NC(=O)c2cccc([C@@H]3C[C@H]3NC3CCOCC3)c2)s1 (relative stereo) [Example 212, N-(2-methyl-1,3-thiazol-5-yl)-3-(trans-2-(tetrahydro-2H-pyran-4-ylamino)cyclopropyl)benzamide dihydrochloride]	> 10									> 10	< 0.1						201	289		
